From ChEMBL document CHEMBL1201862, “PubChem BioAssay data set” (2004)
Calls of active or inactive are those of the source.

Key:
[1] = blockers of CRF-binding protein–CRF-R2 complex – cell-based, uHTS hits, 384-well, dose response (AID 651639); assay type: functional, Homo sapiens; conditions: read-out: IC50_Mean
[2] = target: T1, Corticotropin-releasing factor receptor 2/Corticotropin-releasing factor-binding protein (Homo sapiens, UniProt P24387+Q13324); assay: Dose Response confirmation of uHTS hits for small molecule antagonists of the CRF-binding protein and CRF-R2 receptor complex.; assay type: functional; conditions: read-out: IC50_Mean
T1 sequence (Q13324 whole entry): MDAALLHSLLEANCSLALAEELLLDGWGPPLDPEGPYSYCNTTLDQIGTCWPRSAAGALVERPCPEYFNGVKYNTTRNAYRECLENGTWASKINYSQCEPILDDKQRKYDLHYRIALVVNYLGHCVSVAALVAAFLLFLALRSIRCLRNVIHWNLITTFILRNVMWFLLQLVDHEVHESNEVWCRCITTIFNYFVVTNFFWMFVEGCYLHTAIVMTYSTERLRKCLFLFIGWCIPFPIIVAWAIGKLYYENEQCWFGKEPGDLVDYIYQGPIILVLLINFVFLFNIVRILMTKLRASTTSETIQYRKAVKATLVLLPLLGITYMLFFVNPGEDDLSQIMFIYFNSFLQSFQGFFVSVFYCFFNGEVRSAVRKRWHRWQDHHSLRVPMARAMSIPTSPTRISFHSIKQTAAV
T1 sequence (P24387 whole entry): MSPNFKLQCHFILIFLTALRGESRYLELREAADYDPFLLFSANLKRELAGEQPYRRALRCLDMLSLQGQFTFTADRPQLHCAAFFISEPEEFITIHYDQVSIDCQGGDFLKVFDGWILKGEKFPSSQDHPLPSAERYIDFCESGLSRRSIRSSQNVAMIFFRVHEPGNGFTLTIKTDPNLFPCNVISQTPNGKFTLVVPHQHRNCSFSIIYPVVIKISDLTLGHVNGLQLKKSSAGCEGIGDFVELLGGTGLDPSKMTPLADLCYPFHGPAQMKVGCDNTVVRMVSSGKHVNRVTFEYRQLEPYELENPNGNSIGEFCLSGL

[3] = target: T1, Corticotropin-releasing factor receptor 2/Corticotropin-releasing factor-binding protein; assay: activators of CRF receptor 2 with binding protein – uHTS hits, confirmation (AID 602473); assay type: functional; conditions: read-out: EC50_Mean
[4] = target: T2, Estrogen receptor (Homo sapiens, UniProt P03372);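 also: potency for inhibiting coactivator peptide recruitment to the receptor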
T2 sequence (P03372 whole entry): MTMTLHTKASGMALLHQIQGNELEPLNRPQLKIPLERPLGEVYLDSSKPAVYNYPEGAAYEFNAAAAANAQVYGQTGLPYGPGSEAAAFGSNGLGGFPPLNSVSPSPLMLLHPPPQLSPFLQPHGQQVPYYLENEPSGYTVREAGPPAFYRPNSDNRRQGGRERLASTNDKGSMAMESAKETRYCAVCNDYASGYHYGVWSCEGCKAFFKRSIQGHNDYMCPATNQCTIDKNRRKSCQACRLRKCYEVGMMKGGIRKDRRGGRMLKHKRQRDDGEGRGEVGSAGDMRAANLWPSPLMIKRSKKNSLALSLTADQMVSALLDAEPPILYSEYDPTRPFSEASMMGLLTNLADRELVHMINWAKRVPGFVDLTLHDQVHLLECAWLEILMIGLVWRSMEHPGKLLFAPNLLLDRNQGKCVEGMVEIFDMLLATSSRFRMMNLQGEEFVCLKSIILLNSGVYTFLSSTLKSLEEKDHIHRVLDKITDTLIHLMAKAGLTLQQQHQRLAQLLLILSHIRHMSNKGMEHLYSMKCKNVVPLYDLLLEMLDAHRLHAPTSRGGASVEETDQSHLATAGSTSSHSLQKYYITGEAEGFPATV

[5] = target: Heat shock protein HSP 90-alpha (Homo sapiens, UniProt P07900); assay type: functional, organism-based
[6] = NIH3T3 cell viability loss – ATP luminescence, mouse fibroblasts, counter-screen, dose response (AID 2010); assay type: functional, cell-based;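 also: cells exposed to compound for about 90 hours before reading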
[7] = target: T3, Apoptotic protease-activating factor 1 (Homo sapiens, UniProt O14727); assay type: functional
T3 sequence (O14727 whole entry): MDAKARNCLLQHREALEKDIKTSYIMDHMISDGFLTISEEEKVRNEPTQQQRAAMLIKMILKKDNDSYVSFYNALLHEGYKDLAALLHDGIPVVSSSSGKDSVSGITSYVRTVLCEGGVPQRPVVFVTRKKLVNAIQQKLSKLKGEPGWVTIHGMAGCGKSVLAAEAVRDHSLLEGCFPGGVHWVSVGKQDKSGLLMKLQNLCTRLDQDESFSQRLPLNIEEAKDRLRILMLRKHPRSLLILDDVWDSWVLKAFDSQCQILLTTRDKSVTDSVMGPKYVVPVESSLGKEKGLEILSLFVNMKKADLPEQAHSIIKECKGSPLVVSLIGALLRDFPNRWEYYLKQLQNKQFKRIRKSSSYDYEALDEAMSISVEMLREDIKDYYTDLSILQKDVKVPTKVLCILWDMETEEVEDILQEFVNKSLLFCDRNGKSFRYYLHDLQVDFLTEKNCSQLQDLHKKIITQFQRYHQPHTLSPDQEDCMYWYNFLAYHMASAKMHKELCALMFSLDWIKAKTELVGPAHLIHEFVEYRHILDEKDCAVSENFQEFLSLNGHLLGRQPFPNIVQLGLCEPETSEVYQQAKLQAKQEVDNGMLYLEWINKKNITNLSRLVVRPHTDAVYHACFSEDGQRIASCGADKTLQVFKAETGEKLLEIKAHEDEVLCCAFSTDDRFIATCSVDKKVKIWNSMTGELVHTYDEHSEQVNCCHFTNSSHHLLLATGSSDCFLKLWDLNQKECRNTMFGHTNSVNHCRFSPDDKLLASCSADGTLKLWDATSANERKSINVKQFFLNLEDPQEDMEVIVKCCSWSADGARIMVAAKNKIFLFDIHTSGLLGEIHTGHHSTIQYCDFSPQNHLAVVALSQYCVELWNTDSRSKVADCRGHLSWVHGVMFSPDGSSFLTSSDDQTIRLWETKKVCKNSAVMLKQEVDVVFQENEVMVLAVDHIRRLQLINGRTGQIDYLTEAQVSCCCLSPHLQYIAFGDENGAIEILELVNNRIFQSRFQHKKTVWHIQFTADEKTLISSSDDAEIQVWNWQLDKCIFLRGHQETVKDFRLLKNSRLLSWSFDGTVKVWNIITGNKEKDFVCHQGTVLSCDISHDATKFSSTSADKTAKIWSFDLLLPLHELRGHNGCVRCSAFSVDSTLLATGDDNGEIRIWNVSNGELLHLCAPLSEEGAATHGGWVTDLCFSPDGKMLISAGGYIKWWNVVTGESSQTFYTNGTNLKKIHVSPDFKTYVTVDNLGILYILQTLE

[8] = Trypanosoma cruzi growth suppression in host cells – NIH3T3 host cells, beta-gal luminescence, confirmation (AID 2044); assay type: functional, cell-based;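 also: intracellular parasites grown in NIH/3T3 mouse fibroblasts as host cells; luminescent beta-galactosidase reporter signal from transgenic T. cruzi replicating inside host cells; inhibitors lower the luminescence signal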
[9] = target: T4, Long-chain-fatty-acid--AMP ligase FadD28 (Mycobacterium tuberculosis, UniProt P9WQ59); assay: Fluorescence polarization aasay to screen for inhibitors that compete for the binding of FadD28 to a bisubstrate Measured in Biochemical System Using Plate Reader - 2147-01_Inhibitor_Dose_CherryPick_Activity.; assay type: functional, Mycobacterium tuberculosis H37Rv
T4 sequence (P9WQ59 whole entry): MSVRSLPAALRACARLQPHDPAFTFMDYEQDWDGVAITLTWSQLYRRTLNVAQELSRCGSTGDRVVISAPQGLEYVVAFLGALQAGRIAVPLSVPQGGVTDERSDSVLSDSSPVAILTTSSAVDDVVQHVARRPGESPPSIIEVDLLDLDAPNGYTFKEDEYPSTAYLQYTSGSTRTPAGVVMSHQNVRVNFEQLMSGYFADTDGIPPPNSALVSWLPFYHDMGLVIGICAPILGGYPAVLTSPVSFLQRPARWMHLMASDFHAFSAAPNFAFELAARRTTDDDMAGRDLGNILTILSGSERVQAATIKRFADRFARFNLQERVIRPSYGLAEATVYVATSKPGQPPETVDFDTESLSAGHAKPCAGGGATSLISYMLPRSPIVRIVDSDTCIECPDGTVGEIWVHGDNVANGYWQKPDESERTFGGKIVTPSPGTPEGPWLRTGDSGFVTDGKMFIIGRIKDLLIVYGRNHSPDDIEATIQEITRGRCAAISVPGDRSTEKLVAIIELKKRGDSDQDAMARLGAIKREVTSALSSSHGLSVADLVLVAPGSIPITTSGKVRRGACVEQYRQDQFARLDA

[10] = target: Prothrombin (Bos taurus, UniProt P00735); assay: thrombin protease inhibitors – biochemical, fluorescence polarization, uHTS hits, dose response (AID 602369); assay type: functional
[11] = target: 26S proteasome non-ATPase regulatory subunit 14 (Homo sapiens, UniProt O00487); assay: inhibition of proteasome subunit RPN11 – biochemical, fluorescence polarization, uHTS hits, confirmation (AID 602368); assay type: functional
Sequence of 26S proteasome non-ATPase regulatory subunit 14 (O00487 whole entry): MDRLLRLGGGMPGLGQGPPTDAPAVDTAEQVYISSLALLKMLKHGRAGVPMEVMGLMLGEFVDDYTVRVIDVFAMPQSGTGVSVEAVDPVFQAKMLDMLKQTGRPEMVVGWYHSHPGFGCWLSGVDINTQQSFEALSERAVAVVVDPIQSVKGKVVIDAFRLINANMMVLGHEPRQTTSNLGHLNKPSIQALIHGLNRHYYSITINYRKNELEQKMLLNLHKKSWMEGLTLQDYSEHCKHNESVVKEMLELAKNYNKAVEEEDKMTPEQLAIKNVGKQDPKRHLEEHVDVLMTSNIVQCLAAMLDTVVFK

[12] = target: Large T antigen (Simian virus 40, UniProt P03070); assay type: functional, Betapolyomavirus macacae;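 also: Confirmatory-stage PubChem screen for compounds that inhibit SV40 T antigen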
Sequence of Large T antigen (P03070 whole entry): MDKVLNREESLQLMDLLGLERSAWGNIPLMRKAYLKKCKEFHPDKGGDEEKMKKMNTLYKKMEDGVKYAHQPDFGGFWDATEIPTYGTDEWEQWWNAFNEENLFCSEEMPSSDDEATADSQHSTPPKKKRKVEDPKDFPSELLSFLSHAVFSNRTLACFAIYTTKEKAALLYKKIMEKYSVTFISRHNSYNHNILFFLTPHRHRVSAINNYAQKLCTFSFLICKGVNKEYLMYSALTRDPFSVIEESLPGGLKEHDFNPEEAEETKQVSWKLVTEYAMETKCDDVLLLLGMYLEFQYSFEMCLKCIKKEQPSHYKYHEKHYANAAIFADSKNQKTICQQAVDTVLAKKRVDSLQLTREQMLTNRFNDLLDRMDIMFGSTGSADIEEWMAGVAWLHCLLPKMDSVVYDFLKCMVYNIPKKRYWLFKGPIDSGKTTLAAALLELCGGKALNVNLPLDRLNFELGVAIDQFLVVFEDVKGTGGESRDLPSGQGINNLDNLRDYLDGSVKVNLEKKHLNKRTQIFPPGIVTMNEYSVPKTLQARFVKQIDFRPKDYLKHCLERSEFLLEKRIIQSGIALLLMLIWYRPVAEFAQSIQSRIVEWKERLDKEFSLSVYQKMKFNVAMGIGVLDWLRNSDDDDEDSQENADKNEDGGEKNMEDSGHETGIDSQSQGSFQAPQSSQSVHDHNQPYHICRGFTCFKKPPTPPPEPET

[13] = target: 72 kDa type IV collagenase (Homo sapiens, UniProt P08253); assay: Dose Response validation of uHTS RPN11 inhibitor hits using a MMP-2 Fluorescence assay.; assay type: functional
Sequence of 72 kDa type IV collagenase (P08253 whole entry): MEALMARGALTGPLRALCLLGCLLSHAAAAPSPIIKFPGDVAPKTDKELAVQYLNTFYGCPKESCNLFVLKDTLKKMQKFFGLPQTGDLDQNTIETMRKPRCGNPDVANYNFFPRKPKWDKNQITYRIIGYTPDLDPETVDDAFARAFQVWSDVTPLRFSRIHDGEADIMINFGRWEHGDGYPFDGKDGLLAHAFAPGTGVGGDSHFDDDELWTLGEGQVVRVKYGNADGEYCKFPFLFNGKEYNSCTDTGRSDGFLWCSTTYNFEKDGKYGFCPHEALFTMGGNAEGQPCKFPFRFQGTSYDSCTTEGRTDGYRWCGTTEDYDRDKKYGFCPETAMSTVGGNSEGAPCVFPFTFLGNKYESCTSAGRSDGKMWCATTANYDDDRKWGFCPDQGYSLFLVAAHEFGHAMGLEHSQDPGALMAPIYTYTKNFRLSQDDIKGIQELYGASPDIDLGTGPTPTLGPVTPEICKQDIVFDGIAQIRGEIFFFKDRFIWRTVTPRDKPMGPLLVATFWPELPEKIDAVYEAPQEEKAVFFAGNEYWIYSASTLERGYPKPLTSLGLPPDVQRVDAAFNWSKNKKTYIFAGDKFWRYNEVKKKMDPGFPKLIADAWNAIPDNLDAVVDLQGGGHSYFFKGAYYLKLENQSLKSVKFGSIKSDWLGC

For `Brc1ccccc1-c1nnc(CSc2nnnn2-c2ccccc2)o1`, the IC50 [1] was 1.36 µM (active), the IC50 [2] was 8.93 µM (active) and the EC50 [3] was > 53 µM (inactive). For the same compound, the IC50 [4] was > 50 µM (not active).
With `CCOC(=O)c1ccc(N2C(=O)CC(N3CCC(O)(c4ccc(Cl)cc4)CC3)C2=O)cc1` (configuration not stated) the AC50 [5] was 2.97 µM (active).
In the case of `COc1ccc2c(c1)Cc1sc(NC(=O)c3cccs3)nc1-2`, the EC50 [6] is reported as > 60 µM (not active), the IC50 [7] is reported as 28.7 µM (active) and the EC50 [8] is reported as 2.01 µM (active).
In the case of `O=[N+]([O-])c1ccc([S+]([O-])Cc2ccccc2)c([N+](=O)[O-])c1` (configuration not stated), the AC50 [5] is reported as 2.17 µM (active).
For `CC(=O)Nc1ccc(/N=C(/C2=C(O)c3ccccc3C2=O)c2ccccc2)cc1`, the AC50 [9] was > 100 µM (inactive).
In the case of `CCOC(=O)c1c(NC(=O)c2c(Br)cnn2C)c(C#N)nn1-c1ccccc1`, the IC50 [1] is reported as 18.4 µM (active), the IC50 [2] is reported as 43.9 µM (active) and the EC50 [3] is reported as > 53 µM (inactive).
For `N#C/C(=C\c1ccc(O)c(O)c1)C(=O)N1CCc2ccccc21`, the IC50 [10] was 45.9 µM (active), the IC50 [11] was 0.798 µM (active) and the IC50 [12] was 11.9 µM (active). For the same compound, the IC50 [13] was > 100 µM (inactive).
